US5891882A, “Benzopyranopyrrole and benzopyranopyridine α-1 adenergic compounds” (priority 1997, dated 1999)
Where a name gives a salt, the structure may show the parent alone.

How the values were obtained:
[1] = biological target: T1, α-1A adrenoreceptor (rat vas deferens) (Rattus norvegicus, UniProt P43140); assay: Functional antagonism: inhibition of phenylephrine-induced contraction of rat vas deferens; type: cell-based; details: rat vas deferens, phenylephrine-induced contraction, Schild plot
T1 construct: from tissue; host or cells: rat vas deferens
T1 sequence (P43140 1-466): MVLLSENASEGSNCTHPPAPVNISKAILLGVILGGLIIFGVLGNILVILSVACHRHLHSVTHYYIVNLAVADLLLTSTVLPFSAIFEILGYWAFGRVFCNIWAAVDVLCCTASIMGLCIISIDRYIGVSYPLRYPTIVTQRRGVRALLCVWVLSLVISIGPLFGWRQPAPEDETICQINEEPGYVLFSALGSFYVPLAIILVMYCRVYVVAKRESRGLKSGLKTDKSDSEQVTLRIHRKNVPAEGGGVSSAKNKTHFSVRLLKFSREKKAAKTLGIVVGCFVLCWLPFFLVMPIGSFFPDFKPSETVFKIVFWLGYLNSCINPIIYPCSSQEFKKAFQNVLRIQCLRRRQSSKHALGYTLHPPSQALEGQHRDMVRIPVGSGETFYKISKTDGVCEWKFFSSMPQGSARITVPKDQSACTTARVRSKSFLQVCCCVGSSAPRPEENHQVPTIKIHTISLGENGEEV
Text: (§1) Functional assays indicative of pharmacologically defined α-1 adrenoreceptors were used to further characterize compounds. Inhibition of phenylephrine (PE)-induced contraction of canine prostate smooth muscle can be correlated with α-1A adrenoreceptor activation. […] For each of these models, agonist dose response curves were repeated against increasing concentrations of test agent to derive a Schild plot [log ([…]) against log (molarity of test agent)] to determine the pA2.

[2] = biological target: T2, α-1 Adrenoceptors (Rat Aorta) (Rattus norvegicus, UniProt P23944); assay: Functional antagonism at α-1 adrenoceptors, rat aorta; type: cell-based; details: read-out: In Vitro Characterization (pA2) Rat Aorta (converted)
T2 construct: Rat Aorta; from tissue; host or cells: rat aorta
T2 sequence (P23944 1-561): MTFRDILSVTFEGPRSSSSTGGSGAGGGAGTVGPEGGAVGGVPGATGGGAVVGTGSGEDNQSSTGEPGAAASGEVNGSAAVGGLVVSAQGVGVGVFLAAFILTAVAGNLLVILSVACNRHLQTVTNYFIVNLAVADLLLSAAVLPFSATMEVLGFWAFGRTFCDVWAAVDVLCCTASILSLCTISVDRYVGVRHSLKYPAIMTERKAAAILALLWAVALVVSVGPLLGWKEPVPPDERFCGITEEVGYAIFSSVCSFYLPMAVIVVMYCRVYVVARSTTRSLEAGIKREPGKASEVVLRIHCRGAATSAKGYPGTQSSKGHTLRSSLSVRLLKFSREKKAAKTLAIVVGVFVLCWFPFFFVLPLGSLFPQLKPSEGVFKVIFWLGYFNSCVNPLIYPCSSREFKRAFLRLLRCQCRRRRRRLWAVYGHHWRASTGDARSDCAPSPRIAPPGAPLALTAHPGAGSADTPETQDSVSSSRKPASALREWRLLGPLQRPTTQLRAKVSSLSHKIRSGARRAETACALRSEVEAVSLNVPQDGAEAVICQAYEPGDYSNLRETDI
Method in brief: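 Phenylephrine dose-response curves for contraction were repeated against increasing test-agent concentrations. pA2 was derived by Schild plot [[…] vs log molarity of test agent].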

[3] = biological target: T3, α-1B adrenoreceptor (rat spleen) (Rattus norvegicus, UniProt P15823); assay: Functional antagonism: inhibition of phenylephrine-induced contraction of rat spleen; type: cell-based; details: rat spleen, phenylephrine-induced contraction, Schild plot
T3 construct: from tissue; host or cells: rat spleen
T3 sequence (P15823 1-515): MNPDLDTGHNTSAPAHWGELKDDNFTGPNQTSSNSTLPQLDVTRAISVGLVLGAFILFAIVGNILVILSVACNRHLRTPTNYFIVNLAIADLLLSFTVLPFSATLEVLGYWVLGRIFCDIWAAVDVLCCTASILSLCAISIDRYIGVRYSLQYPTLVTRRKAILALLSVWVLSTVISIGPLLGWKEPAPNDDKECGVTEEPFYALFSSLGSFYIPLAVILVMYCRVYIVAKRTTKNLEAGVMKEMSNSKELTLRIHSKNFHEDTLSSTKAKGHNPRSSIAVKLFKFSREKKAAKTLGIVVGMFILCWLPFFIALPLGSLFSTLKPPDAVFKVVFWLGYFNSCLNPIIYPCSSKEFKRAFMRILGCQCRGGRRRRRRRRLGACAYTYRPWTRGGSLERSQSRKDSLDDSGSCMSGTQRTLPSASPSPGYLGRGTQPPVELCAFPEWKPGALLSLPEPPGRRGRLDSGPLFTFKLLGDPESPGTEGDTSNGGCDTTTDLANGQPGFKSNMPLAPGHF
Text: as §1

[4] = system: α-1 adrenoreceptor; details: cited from earlier work
[5] = antihypertensive treatment; cited from earlier work

## COc1cccc2c1[C@@H]1CN(CCCCn3c(=O)[nH]c4c(sc5ccncc54)c3=O)C[C@@H]1CO2 [Example 28, 3-[4-((3aR,9bR)-cis-9-Methoxy-1,2,3,3a,4,9b-hexahydro-[1]-benzopyrano[3,4-c]pyrrol-2-yl)butyl]-pyrido[3',3':4,5]thieno[3,2-d]pyrimidine-2,4(1H,3H)-dione hydrochloride]
[1]
  In Vitro Characterization (pA2) Rat Vas: 9.39
[2]
  Kb: 0.195 nM

## COc1ccc2sc3c(=O)n(CCCCN4C[C@@H]5COc6cccc(OC)c6[C@@H]5C4)c(=O)[nH]c3c2n1 [Example 30, 3-[4-((3aR,9bR)-cis-9-Methoxy-1,2,3,3a,4,9b-hexahydro-[1]-benzopyrano[3,4-c]pyrrol-2-yl)butyl]-8-methoxy-pyrido[2',3':4,5]thieno[3,2-d]pyrimidine-2,4(1H,3H)-dione hydrochloride]
[1]
  In Vitro Characterization (pA2) Rat Vas: 9.6
[2]
  Kb: 0.468 nM

## COc1cccc2c1[C@@H]1CN(CCCCn3c(=O)[nH]c4c(sc5ccncc54)c3=O)C[C@H]1CO2 [Example 41, 3-[4-((3aR,9bR)-trans-9-Methoxy-1,2,3,3a,4,9b-hexahydro-[1]-benzopyrano[3,4-c]pyrrol-2-yl)butyl]-pyrido[3',4':4,5]thieno[3,2-d]pyrimidine-2,4(1H,3H)-dione hydrochloride]
[1]
  In Vitro Characterization (pA2) Rat Vas: 9.45
[2]
  Kb: 0.017 nM

## COc1cccc2c1[C@@H]1CN(CCCCn3c(=O)[nH]c4c(sc5cnccc54)c3=O)C[C@H]1CO2 [Example 42, hydrochloride]
[1]
  In Vitro Characterization (pA2) Rat Vas: 9.59
[2]
  Kb: 0.0389 nM

## COc1cccc2c1[C@@H]1CN(CCCCn3c(=O)[nH]c4c(sc5nc(C)ccc54)c3=O)C[C@H]1CO2 [Example 45, 3-[4-((3aS,9bR)-trans-9-Methoxy-1,2,3,3a,4,9b-hexahydro-[1]-benzopyrano[3,4-c]pyrrol-2-yl)butyl]-7-methyl-pyrido[3',2':4,5]thieno[3,2-d]pyrimidine-2,4(1H,3H)-dione hydrochloride]
[1]
  In Vitro Characterization (pA2) Rat Vas: 9.59
[2]
  Kb: 0.209 nM

## COc1cccc2c1[C@@H]1CN(CCCCn3c(=O)[nH]c4c(sc5c(Cl)nccc54)c3=O)C[C@@H]1CO2 [Example 53, 3-[4-((3aR,9bR)-cis-9-Methoxy-1,2,3,3a,4,9b-hexahydro-[1]-benzopyrano[3,4-c]pyrrol-2-yl)butyl]-6-chloro-pyrido[4',3':4,5]thieno[3,2-d]pyrimidine-2,4(1H,3H)-dione]
[1]
  In Vitro Characterization (pA2) Rat Vas: 9.31
[3]
  In Vitro Characterization (pA2) Rat Spleen: 7.2
[2]
  Kb: 1.07 nM

## COc1cc2nc(N3CCN(C(=O)c4ccco4)CC3)nc(N)c2cc1OC [Prazosin, prazosin]
[4]; BPH treatment
  dose limiting side effects: hypotension, dizziness, and muscle fatigue
[4]; longer term studies, BPH
  urinary flow rates and subjective symptom scores: significant improvements in urinary flow rates and subjective symptom scores
[5]
  urinary incontinence in women: urinary incontinence developed in women
